Results from patent US5925618A, “Peptides useful as somatostatin antagonists” (American Cyanamid Company, priority 1998, dated 1999).
Square brackets hold non-standard residues; d marks the D form. Peptide text beside a SMILES is read from it.

Assays:
[1] = test system: Male Sprague-Dawley rats; experiment: Serum growth hormone levels in anaesthetized rats (peptide 1, BIM 23014C); assay type: in vivo, rat
Experimental: Evaluation in anaesthetized rats. Male Sprague-Dawley rats are anaesthetized with Sagatal and fitted so as to allow efficient intravenous treatment with control and test compounds as well as frequent blood sampling. Blood samples are tested for growth hormone (GH) levels by radioimmunoassay. Thirty minutes after the initiation of blood sampling, rats are given 5 μg, 25 μg or 50 μg of peptide 1.

[2] = test system: Male Sprague-Dawley rats; experiment: Spontaneous growth hormone secretory pulses in conscious rats; assay type: in vivo, rat; settings: 300 μg/hr i.v. infusion for two hours
Experimental: Evaluation in conscious rats. Male Sprague-Dawley rats are fitted so as to allow efficient intravenous treatment with control and test compounds as well as frequent blood sampling. Blood samples are tested for growth hormone (GH) levels by radioimmunoassay. Blood samples are taken over a 12 hour period. At a 6 hour time point, peptide 1 is infused intravenously (300 μg/hr) into conscious, freely moving male rats for two hours. Control animals receive saline infusions over the same time period. […] It is known, SRIF is required for growth hormone pulsatility and that an SRIF antagonist abolishes said pulsatility (see Tannenbaum, G. S. and Ling, N., Endocrinology, 115, 1952-1957, 1984, incorporated herein by reference).

CC[C@@H](C)[C@@H](NC(=O)[C@@H](Cc1ccccc1)NC(=O)[C@@H](Cc1c[nH]cn1)NC(C)=O)C(=O)N[C@H](CCCNC(=N)N)C(=O)N[C@H](Cc1c[nH]c2ccccc12)C(=O)N[C@H](Cc1ccccc1)C(N)=O [Peptide 1, h-f-i-r-w-f] (Ac-[dH][dF][dI][dR][dW][dF]-NH2)
SGH ([1]; 5 μg group, 90 min (time of 2nd peptide 1 dose, after BIM 23014C)): 2.4 ng/mL | SGH ([1]; 5 μg peptide 1 at 30 min, sample 35 min): 17.5 ng/mL | SGH ([1]; 5 μg peptide 1 at 30 min, sample 40 min): 14.9 ng/mL | SGH ([1]; 5 μg peptide 1 at 30 min, sample 45 min): 15.7 ng/mL | SGH ([1]; 5 μg peptide 1 group, i.v., 30 min (time of 1st peptide 1 dose)): 12.2 ng/mL | serum GH levels after first dose ([1]; 5 μg, 25 μg or 50 μg i.v. at 30 min): significant increase in serum GH levels resulting from the highest dose | SGH ([1]; 25 μg group, 90 min (time of 2nd peptide 1 dose, after BIM 23014C)): 5.1 ng/mL | SGH ([1]; 25 μg peptide 1 at 30 min, sample 35 min): 18.4 ng/mL | SGH ([1]; 25 μg peptide 1 at 30 min, sample 40 min): 17.5 ng/mL | SGH ([1]; 25 μg peptide 1 at 30 min, sample 45 min): 14.0 ng/mL | SGH ([1]; 25 μg peptide 1 group, i.v., 30 min (time of 1st peptide 1 dose)): 16.6 ng/mL | SGH ([1]; 50 μg group, 90 min (time of 2nd peptide 1 dose, after BIM 23014C)): 1.9 ng/mL | SGH ([1]; 50 μg peptide 1 at 30 min, sample 35 min): 50.2 ng/mL | SGH ([1]; 50 μg peptide 1 at 30 min, sample 40 min): 23.4 ng/mL | SGH ([1]; 50 μg peptide 1 at 30 min, sample 45 min): 15.5 ng/mL | SGH ([1]; 50 μg peptide 1 group, i.v., 30 min (time of 1st peptide 1 dose)): 19.7 ng/mL | SGH ([1]; 2nd dose 5 μg peptide 1 at 90 min after BIM 23014C, sample 95 min): 3.1 ng/mL | SGH ([1]; 2nd dose 5 μg peptide 1 at 90 min after BIM 23014C, sample 100 min): 1.7 ng/mL | SGH ([1]; 2nd dose 5 μg peptide 1 at 90 min after BIM 23014C, sample 105 min): 1.7 ng/mL | SGH ([1]; 2nd dose 5 μg peptide 1 at 90 min after BIM 23014C, sample 135 min): 1.1 ng/mL | SGH ([1]; 2nd dose 25 μg peptide 1 at 90 min after BIM 23014C, sample 95 min): 11.4 ng/mL | SGH ([1]; 2nd dose 25 μg peptide 1 at 90 min after BIM 23014C, sample 100 min): 10.5 ng/mL | SGH ([1]; 2nd dose 25 μg peptide 1 at 90 min after BIM 23014C, sample 105 min): 7.9 ng/mL | SGH ([1]; 2nd dose 25 μg peptide 1 at 90 min after BIM 23014C, sample 135 min): 5.2 ng/mL | SGH ([1]; 2nd dose 50 μg peptide 1 at 90 min after BIM 23014C, sample 95 min): 67.3 ng/mL | SGH ([1]; 2nd dose 50 μg peptide 1 at 90 min after BIM 23014C, sample 100 min): 31.8 ng/mL | SGH ([1]; 2nd dose 50 μg peptide 1 at 90 min after BIM 23014C, sample 105 min): 10.5 ng/mL | SGH ([1]; 2nd dose 50 μg peptide 1 at 90 min after BIM 23014C, sample 135 min): 2.6 ng/mL | serum GH levels after second dose ([1]; second dose 5 μg, 25 μg or 50 μg after BIM 23014C): even greater increase in serum GH levels from the highest dose | spontaneous growth hormone secretory pulses [2]: abolition of these pulses
